The values below come from ChEMBL document CHEMBL5126521, “Analgesic Opioid Ligand Discovery Based on Nonmorphinan Scaffolds Derived from Natural Sources” (J Med Chem, 2022).

Bridge positions count the residues as written; N and C are the ends. Square brackets hold non-standard residues; d marks the D form. Peptide text beside a SMILES is read from it. ξ: configuration not given here. Dmt = Cc1cc(O)cc(C)c1C[C@H](N)C(=O)O; ξGly(octyl) = CCCCCCCCC(N)C(=O)O; Tic = O=C(O)[C@@H]1Cc2ccccc2CN1 A value given as a limit tells only on which side of the number the result lay.

In data set [1] the test system is Mus musculus. Description: Antinociceptive activity in icv dosed C57BL/6J mouse assessed as tail withdrawal latency from warm water. The class given is functional.
The target in data set [2] is T1, Mu-type opioid receptor (Homo sapiens, UniProt P35372). The data set can be described thus: Antagonist activity at human MOP stably expressed in CHO cell membrane assessed as [35S]GTPgammaS binding. The class given is functional, cell membranes. Background: GTPγS is a poorly hydrolysed GTP analogue; its binding reports G protein activation.
Data set [3] addresses T2, Kappa-type opioid receptor (Rattus norvegicus, UniProt P34975). The data set can be described thus: Displacement of [3H]diprenorphine from rat KOP stably expressed in CHO cell membrane. The format is cell membranes.
The target of data set [4] is T3, Kappa-type opioid receptor (Homo sapiens, UniProt P41145). Description: Antagonist activity at human KOP stably expressed in CHO cell membrane assessed as [35S]GTPgammaS binding. The format is functional, cell membranes.
For data set [5], the system named is Mus musculus. The data set can be described thus: Antinociceptive activity in ip dosed mouse assessed as tail flick latency. The class given is functional.
Data set [6] concerns the target Delta-type opioid receptor (Mus musculus, UniProt P32300). Description: Displacement of [3H]DPDPE from mouse DOP stably expressed in CHO cell membrane. The format is cell membranes. (In general: Loss of bound radioactivity is the signal in a displacement assay; it reports binding, not function.)
Data set [7] has as its target T3, Kappa-type opioid receptor. Description: Binding affinity to human KOP stably expressed in CHO cell membrane assessed as [35S]GTPgammaS binding. The class given is cell membranes. The note with it: filed as antagonist.
Data set [8] relates to Mus musculus. The data set can be described thus: Antinociceptive activity in po dosed C57BL/6J mouse assessed as tail withdrawal latency from warm water. The format is functional.
The subject of data set [9] is Mus musculus. The data set can be described thus: Antinociceptive activity in mouse administered icv. The class given is functional.
For data set [10], the system named is Mus musculus. The data set can be described thus: Antinociceptive activity in mouse administered sc by tail pressure test. The format is functional.
The test system of data set [11] is Mus musculus. Description: Antinociceptive activity in mouse administered po by tail pressure test. The format is functional.
The target of data set [12] is T4, Mu-type opioid receptor (Cavia porcellus, UniProt P97266). Description: Antagonist activity at guinea pig ileum MOP. The format is functional, tissue-based.
The test system of data set [13] is Mus musculus. Description: Antinociceptive activity in Kunming mouse assessed as heat paw withdrawal measured after 10 secs administered icv. The note with it: time 10 sec, 10 s. The format is functional.
The target in data set [14] is T5, Delta-type opioid receptor (Homo sapiens, UniProt P41143). Description: Binding affinity to DOP (unknown origin).
Data set [15] can be described thus: Stability in rat brain homogenate assessed as half life. The format is ADME, tissue-based.
A short description of data set [16]: Stability in mouse serum assessed as half life. The class given is ADME, cell-free.
In data set [17] the target is T1, Mu-type opioid receptor. Description: Binding affinity to MOP (unknown origin).
The nature of data set [18]: Stability in mouse brain homogenate assessed as half life. The class given is ADME, tissue-based.
Data set [19] addresses T1, Mu-type opioid receptor. The data set can be described thus: Displacement of [3H]DAMGO from MOP (unknown origin) stably expressed in HEK293 cells by liquid scintillation counter analysis. The class given is cell-based.
For data set [20], the target named is T1, Mu-type opioid receptor. Description: Agonist activity at MOP (unknown origin) stably expressed in HEK293 cells assessed as forskolin stimulated cAMP accumulation incubated for 30 mins by radioactivity based scintillation counter analysis relative to control. The format is functional, cell-based. The note with it: filed as agonist. (In general: Cyclic AMP is a second messenger, typically raised through Gs and lowered through Gi signalling.)

Data set [21] deals with Mus musculus. Description: Antinociceptive activity in Kunming mouse assessed as tail flick response in warm water administered iv. The class given is functional.
Data set [22] concerns the target T5, Delta-type opioid receptor. Description: Displacement of [3H]DPDPE from DOP (unknown origin) stably expressed in HEK293 cells by liquid scintillation counter analysis. The format is cell-based.
The target of data set [23] is T1, Mu-type opioid receptor. Description: Agonist activity at MOP (unknown origin) stably expressed in HEK293 cells assessed as forskolin stimulated cAMP accumulation incubated for 30 mins by radioactivity based scintillation counter analysis. The format is functional, cell-based.
Data set [24] relates to Mus musculus. The data set can be described thus: Antinociceptive activity in Kunming mouse assessed tail flick response in warm water administered icv. The class given is functional.
Data set [25] concerns Mus musculus. The data set can be described thus: Antinociceptive activity in Swiss albino mouse assessed tail flick response in warm water administered icv. The class given is functional.
The target in data set [26] is T2, Kappa-type opioid receptor. The data set can be described thus: Inhibition of Wistar rat brain membrane KOP. The format is cell membranes.
Data set [27] concerns Mus musculus. Description: Antinociceptive activity in po dosed mouse by tail flick assay. The format is functional.
A short description of data set [28]: Displacement of [3H]DPDPE from guinea pig brain membrane DOP incubated for 2.5 hr by scintillation counter analysis. The format is cell membranes, Cavia porcellus.
In data set [29] the target is T4, Mu-type opioid receptor. Description: Displacement of [3H]DAMGO from guinea pig brain membrane MOP incubated for 1 hr by scintillation counter analysis. The class given is cell membranes.
Data set [30] deals with Mus musculus. Description: Antinociceptive activity in sc dosed mouse. The class given is functional.
Data set [31] in a line: Toxicity in sc dosed mouse assessed as antinociceptive activity tolerance. The class given is organism-based. The note with it: in vivo.
The nature of data set [32]: Toxicity in po dosed mouse assessed as antinociceptive activity tolerance by tail flick assay. The format is organism-based. The note with it: in vivo.
Data set [33] concerns the target Delta-type opioid receptor (Rattus norvegicus, UniProt P33533). Description: Agonist activity at recombinant rat DOP stably expressed in CHO-K1 cell membrane assessed as [35S]GTPgammaS binding. The format is functional, cell membranes.
Data set [34] addresses Kappa-type opioid receptor (Cavia porcellus, UniProt P41144). The data set can be described thus: Displacement of [3H]U69593 from guinea pig brain membrane KOP incubated for 1 hr by scintillation counter analysis. The format is cell membranes.
The target in data set [35] is Mu-type opioid receptor (Rattus norvegicus, UniProt P33535). The data set can be described thus: Agonist activity at recombinant rat MOP stably expressed in CHO-K1 cell membrane assessed as [35S]GTPgammaS binding. The class given is functional, cell membranes.
Data set [36] has as its target T1, Mu-type opioid receptor. The data set can be described thus: Agonist activity at MOP in human SH-SY5Y cells assessed as forskolin stimulated cAMP accumulation incubated for 30 mins by Biotrak-EIA kit method. The class given is functional, cell-based.
Another data set relates to Rattus norvegicus. The data set can be described thus: Antinociceptive activity in Sprague-Dawley rat assessed as tail flick response in warm water administered iv. The format is functional.
The nature of data set [37]: Degradation half life in rat brain homogenate. The class given is ADME, tissue-based.
Data set [38] can be described thus: Stability in rat brain homogenate assessed as compound remaining measured after 90 mins relative to control. The note with it: read-out: Stability. The format is ADME, tissue-based.

T1 sequence (P35372 whole entry): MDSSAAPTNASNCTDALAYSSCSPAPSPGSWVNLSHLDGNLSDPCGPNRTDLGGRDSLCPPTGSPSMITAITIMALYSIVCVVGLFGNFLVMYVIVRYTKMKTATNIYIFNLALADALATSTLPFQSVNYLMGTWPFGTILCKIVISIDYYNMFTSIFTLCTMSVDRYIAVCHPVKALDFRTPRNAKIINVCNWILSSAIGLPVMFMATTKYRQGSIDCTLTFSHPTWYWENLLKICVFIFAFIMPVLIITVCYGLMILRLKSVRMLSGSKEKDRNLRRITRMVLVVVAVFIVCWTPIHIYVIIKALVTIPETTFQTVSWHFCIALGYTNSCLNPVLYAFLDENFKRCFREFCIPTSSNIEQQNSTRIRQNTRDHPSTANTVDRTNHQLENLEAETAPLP
T3 sequence (P41145 whole entry): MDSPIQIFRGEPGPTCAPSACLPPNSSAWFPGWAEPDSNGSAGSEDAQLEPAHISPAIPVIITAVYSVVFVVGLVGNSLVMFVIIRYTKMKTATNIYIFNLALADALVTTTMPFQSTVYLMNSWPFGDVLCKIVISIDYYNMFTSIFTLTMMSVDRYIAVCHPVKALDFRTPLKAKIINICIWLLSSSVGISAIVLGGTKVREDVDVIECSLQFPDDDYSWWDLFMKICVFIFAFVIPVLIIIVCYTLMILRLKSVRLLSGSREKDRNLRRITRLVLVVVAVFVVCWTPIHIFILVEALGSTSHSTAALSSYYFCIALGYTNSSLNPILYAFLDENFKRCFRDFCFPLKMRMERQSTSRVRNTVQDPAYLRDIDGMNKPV
T5 sequence (P41143 whole entry): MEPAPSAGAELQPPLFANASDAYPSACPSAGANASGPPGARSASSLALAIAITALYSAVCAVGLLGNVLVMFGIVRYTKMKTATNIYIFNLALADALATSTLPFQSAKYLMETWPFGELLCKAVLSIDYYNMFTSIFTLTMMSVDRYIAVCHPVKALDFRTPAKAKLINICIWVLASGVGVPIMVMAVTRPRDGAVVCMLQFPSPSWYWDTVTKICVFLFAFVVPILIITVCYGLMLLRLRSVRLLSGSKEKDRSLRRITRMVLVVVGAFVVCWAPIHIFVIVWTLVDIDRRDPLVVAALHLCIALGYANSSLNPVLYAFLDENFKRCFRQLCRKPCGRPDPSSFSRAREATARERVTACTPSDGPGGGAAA
T2 sequence (P34975 whole entry): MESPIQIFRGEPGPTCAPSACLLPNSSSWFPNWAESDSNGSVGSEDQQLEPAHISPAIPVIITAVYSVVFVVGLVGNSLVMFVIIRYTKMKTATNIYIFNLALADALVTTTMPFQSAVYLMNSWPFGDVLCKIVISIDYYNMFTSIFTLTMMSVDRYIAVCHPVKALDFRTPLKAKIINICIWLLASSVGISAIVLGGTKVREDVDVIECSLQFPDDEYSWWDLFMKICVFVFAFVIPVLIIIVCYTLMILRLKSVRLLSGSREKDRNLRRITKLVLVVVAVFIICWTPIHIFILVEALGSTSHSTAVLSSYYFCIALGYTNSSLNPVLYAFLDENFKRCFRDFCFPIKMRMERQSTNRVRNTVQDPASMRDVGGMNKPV
T4 sequence (P97266 whole entry): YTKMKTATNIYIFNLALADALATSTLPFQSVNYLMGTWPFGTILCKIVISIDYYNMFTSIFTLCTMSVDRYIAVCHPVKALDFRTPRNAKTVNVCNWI
Sequence of Mu-type opioid receptor (Rattus norvegicus, UniProt P33535) (P33535 whole entry): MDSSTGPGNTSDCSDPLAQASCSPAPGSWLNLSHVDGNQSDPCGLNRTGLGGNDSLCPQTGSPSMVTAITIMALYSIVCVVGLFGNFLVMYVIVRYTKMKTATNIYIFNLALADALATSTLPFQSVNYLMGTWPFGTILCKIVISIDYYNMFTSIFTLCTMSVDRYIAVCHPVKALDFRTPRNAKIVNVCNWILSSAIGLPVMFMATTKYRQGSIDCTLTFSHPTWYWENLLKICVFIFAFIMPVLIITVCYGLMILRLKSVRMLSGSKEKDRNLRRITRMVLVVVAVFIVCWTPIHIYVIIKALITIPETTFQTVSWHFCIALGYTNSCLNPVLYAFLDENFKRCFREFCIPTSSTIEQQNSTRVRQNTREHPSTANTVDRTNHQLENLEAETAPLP
Sequence of Delta-type opioid receptor (Rattus norvegicus, UniProt P33533) (P33533 whole entry): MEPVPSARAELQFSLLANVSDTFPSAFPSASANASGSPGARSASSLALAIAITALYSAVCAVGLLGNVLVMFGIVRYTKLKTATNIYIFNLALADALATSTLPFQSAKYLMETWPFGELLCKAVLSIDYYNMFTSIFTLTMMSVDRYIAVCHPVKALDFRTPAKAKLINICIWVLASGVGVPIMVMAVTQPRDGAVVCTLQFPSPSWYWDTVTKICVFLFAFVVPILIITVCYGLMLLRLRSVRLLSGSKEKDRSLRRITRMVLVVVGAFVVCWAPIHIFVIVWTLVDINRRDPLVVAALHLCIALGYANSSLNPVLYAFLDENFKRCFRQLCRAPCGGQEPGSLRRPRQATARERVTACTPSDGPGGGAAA
Sequence of Kappa-type opioid receptor (Cavia porcellus, UniProt P41144) (P41144 whole entry): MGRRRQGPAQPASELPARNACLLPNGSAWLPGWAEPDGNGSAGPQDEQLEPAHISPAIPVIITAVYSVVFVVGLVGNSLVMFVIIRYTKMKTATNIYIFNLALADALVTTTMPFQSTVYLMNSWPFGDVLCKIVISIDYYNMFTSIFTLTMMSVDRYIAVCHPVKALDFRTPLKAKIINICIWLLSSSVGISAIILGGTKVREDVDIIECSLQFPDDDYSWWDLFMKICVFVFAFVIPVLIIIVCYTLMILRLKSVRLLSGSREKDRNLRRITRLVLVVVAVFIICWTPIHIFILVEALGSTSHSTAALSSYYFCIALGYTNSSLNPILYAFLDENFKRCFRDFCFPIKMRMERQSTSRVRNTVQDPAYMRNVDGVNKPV
Sequence of Delta-type opioid receptor (Mus musculus, UniProt P32300) (P32300 whole entry): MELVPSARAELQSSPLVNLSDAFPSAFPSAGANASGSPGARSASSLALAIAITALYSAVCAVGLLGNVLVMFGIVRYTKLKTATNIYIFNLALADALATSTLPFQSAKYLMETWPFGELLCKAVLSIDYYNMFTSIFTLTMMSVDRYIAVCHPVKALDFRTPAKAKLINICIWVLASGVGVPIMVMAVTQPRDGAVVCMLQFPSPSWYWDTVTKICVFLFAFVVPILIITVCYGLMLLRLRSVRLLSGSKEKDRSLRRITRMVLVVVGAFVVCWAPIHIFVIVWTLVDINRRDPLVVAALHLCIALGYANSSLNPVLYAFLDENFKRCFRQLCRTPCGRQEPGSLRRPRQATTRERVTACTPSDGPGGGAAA

For `C[C@@H]1NC(=O)[C@@H](Cc2c[nH]c3ccccc23)NC(=O)[C@H](Cc2ccccc2)NC(=O)[C@H]2CCCN2C1=O`, in the data set on Mus musculus [1], the ED50 was found to be 1.99 nmol. Besides, the half-inhibitory concentration (IC50) (as a rule, the point on the concentration scale where inhibition reaches its midpoint) at Mu-type opioid receptor [2] is 8.08 nM; in data set [4], 0.81 nM. For the same compound, in data set [3], the inhibition constant (Ki) (in general, a dissociation constant, usually derived from enzyme kinetics or from competition with a known ligand) was determined as 3.07 nM.
`COC(=O)[C@@H]1C[C@H](O[C@@H]2CCCCO2)C(=O)[C@H]2[C@@]1(C)CC[C@H]1C(=O)O[C@H](c3ccoc3)C[C@]21C`: in the data set on Mus musculus [5], the ED50 was 1.4 mg/kg.
Turning to `O=C1N[C@H](Cc2c[nH]c3ccccc23)C(=O)N[C@@H](Cc2ccccc2)C(=O)N2CCC[C@@H]2C(=O)N[C@H]1Cc1ccccc1`, in data set [6], affinity was put at a Ki of 4190 nM. Moreover, the antagonist dissociation constant (Kb) (as a rule, the affinity of an antagonist, worked out from how it opposes an agonist) in [7] is 20.2 nM. For the same compound, the ED50 with Mus musculus [8] stood at 60 mg/kg.
In the case of `N=C(N)NCCC[C@@H](NC(=O)[C@@H](N)Cc1ccc(O)cc1)C(=O)N[C@@H](Cc1ccccc1)C(N)=O`, the ED50 in the data set with Mus musculus [9] amounted to 210 pmol; in the data set with Mus musculus [10] it was 1 µmol/kg; in the data set on Mus musculus [11] it was 103 µmol/kg. Further, the half-inhibitory concentration (IC50) against Mu-type opioid receptor [12] stood at 240 nM.
As to `COC(=O)[C@H](Cc1ccccc1)NC(=O)[C@H](Cc1ccccc1)NC(=O)[C@@H]1CCCN1C(=O)[C@@H](N)Cc1ccc(O)cc1`, in the data set on Mus musculus [13], the ED50 came to 3 nmol. The inhibitory constant (Ki) is > 10000 nM in data set [14] and 9.07 nM at Mu-type opioid receptor [17]. In addition, the half-life (as a rule, the time needed for the level to fall by half in the phase considered) in data set [15] turned out to be 47.6 min; in [16], 30.1 min.
`C=C(C(N)=O)[C@@H](NC(=O)[C@H](Cc1c[nH]c2ccccc12)NC(=O)[C@@H](C)N(C)C(=O)[C@@H](N)Cc1c(C)cc(O)cc1C)c1ccco1`: the half-life in [18] and in data set [16] was ≥ 300 min each time. Also, the Ki on Mu-type opioid receptor [19] is 0.011 nM; in data set [22] it was 33.3 nM. Besides, at Mu-type opioid receptor [20], the Emax (usually the size of the effect at its maximum, as opposed to the concentration needed) came to 98.3%. The ED50 was 0.382 mg/kg with Mus musculus [21] and 0.000695 µmol/kg with Mus musculus [24]. Further, at Mu-type opioid receptor [23], the concentration giving a half-maximal response (EC50) (in general, the concentration needed to bring the measured effect to its halfway point) is 0.0018 nM.
Take `NC(=O)[C@@H]1CC(=O)NCCCC[C@@H](NC(=O)[C@@H](N)Cc2ccc(O)cc2)C(=O)N[C@@H](Cc2ccccc2)C(=O)N[C@@H](Cc2ccccc2)C(=O)N1` (H-Y[dK]FFD-NH2; lactam 2-5): the ED50 with Mus musculus [25] was 0.06 nmol. In addition, inhibition in data set [26] was half-maximal at 2.36 nM (IC50).
As for `CC[C@@H]1CN2CC[C@]3(O)c4c(ccc(F)c4OC)N[C@@H]3[C@@H]2C[C@@H]1/C(=C\OC)C(=O)OC`, the ED50 with Mus musculus [27] turned out to be 0.26 mg/kg; with Mus musculus [30], 0.06 mg/kg; in [31] it was 0.09 mg/kg; in data set [32], 0.45 mg/kg. Besides, the inhibition constant (Ki) in data set [28] came to 7 nM; at Mu-type opioid receptor [29], 2.1 nM; in [34] it was 29 nM. In addition, the EC50 worked out at 61 nM in [33] and 18 nM at Mu-type opioid receptor [35].
As to `CCCCCCCCC(N)C(=O)N[C@@H](Cc1c(C)cc(O)cc1C)C(=O)N1CCC[C@H]1C(=O)N[C@@H](Cc1c[nH]c2ccccc12)C(=O)N[C@@H](Cc1ccccc1)C(N)=O` (some centres undefined) (H-[ξGly(octyl)][Dmt]PWF-NH2), the EC50 at Mu-type opioid receptor [36] amounted to 1.3 nM. For the same compound, in the data set with Rattus norvegicus, the ED50 turned out to be 1 µmol/kg.
`Cc1cc(O)cc(C)c1C[C@H](N)C(=O)N1Cc2ccccc2C[C@H]1C(=O)N[C@@H](Cc1ccccc1)C(=O)N[C@@H](Cc1ccccc1)C(N)=O` (H-[Dmt][Tic]FF-NH2) displayed a half-life in [37] of 6.1 min.
`NC(=O)[C@H](Cc1ccccc1)NC(=O)[C@H](Cc1ccccc1)NC(=O)[C@@H]1CCCN1C(=O)[C@@H](N)Cc1ccc(O)cc1` [ENDOMORPHIN 2]: in the data set on Mus musculus [25], the ED50 was found to be 6.88 nmol. For the same compound, the remaining at […] in data set [38] stood at 0%. For the same compound, the figures for the half-life in data set [37], in data set [15] and in data set [16] were 0.75 min, 15.9 min and 8.2 min, respectively.
